{"source": "patent US10517889B2", "about": "“Modulators of SMAD7 expression” (Ionis Pharmaceuticals, Inc., priority 2017, dated 2019)", "note": "Strand notation (5' to 3'): a small letter for the sugar, then the base; units joined by * are phosphorothioate-linked, units joined directly phosphodiester-linked; [ ] holds rarer units or linkages, { } end groups; capitals alone tell only the bases. k = constrained ethyl (cEt); [5mC] = 5-methylcytosine; d = 2'-deoxy (DNA)", "data": [{"tested_on": "human SMAD7 mRNA", "experiment": "Antisense inhibition of human SMAD7 mRNA expression in Hep3B cells by 3-10-3 cEt gapmers, 10,000 nM, electroporation (Example 2)", "type": "cell-based", "conditions": "Hep3B cells, electroporation with 10,000 nM antisense oligonucleotide, approximately 24 hours, RTS5062, percent inhibition of SMAD7 mRNA relative to untreated control cells", "in_short": "(§1)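 qRT-PCR (RTS5062) of SMAD7 mRNA, normalised to RIBOGREEN total RNA, gave percent inhibition relative to untreated controls. Hep3B cells at 20,000 per well received 10,000 nM oligonucleotide by electroporation, with ~24 h treatment.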", "units": {"% Inhibition": "%"}, "values": [{"substance": "799567 (k[5mC]*kT*kT*dT*dG*dA*dG*dT*dA*dA*dA*d[5mC]*dA*kA*kT*kA; antisense) [compound 799567]", "% Inhibition": 15}, {"substance": "799569 (k[5mC]*kT*k[5mC]*dT*dA*dG*dG*dT*d[5mC]*d[5mC]*d[5mC]*dT*d[5mC]*kT*kT*kT; antisense) [compound 799569]", "% Inhibition": 24}, {"substance": "799570 (kA*kA*kA*dA*dG*dA*dT*dG*d[5mC]*dA*dG*dT*dT*k[5mC]*kA*k[5mC]; antisense) [compound 799570]", "% Inhibition": 39}, {"substance": "799571 (k[5mC]*kA*kG*dA*dA*dA*dA*dG*dA*dT*dG*d[5mC]*dA*kG*kT*kT; antisense) [compound 799571]", "% Inhibition": 46}, {"substance": "799573 (kA*kA*kT*dA*dA*dA*dA*d[5mC]*d[5mC]*dA*dT*d[5mC]*dT*kA*kA*k[5mC]; antisense) [compound 799573]", "% Inhibition": 0}, {"substance": "799584 (kT*kA*kT*d[5mC]*dA*dA*dG*dA*dA*dG*dA*d[5mC]*dA*kA*kA*k[5mC]; antisense) [compound 799584]", "% Inhibition": 39}, {"substance": "799585 (kA*kG*kA*d[5mC]*dA*dA*dG*dA*dT*dG*dT*dT*dA*kT*k[5mC]*kA; antisense) [compound 799585]", "% Inhibition": 34}, {"substance": "799586 (kG*kA*kG*dG*dA*dG*dG*d[5mC]*dA*d[5mC]*dT*d[5mC]*dA*kG*kG*k[5mC]; antisense) [compound 799586]", "% Inhibition": 50}, {"substance": "799587 (kT*kT*k[5mC]*dA*d[5mC]*dA*dG*dG*dT*d[5mC]*dA*d[5mC]*dA*kT*kG*kG; antisense) [compound 799587]", "% Inhibition": 42}, {"substance": "799588 (kA*kA*kA*dA*dA*dG*d[5mC]*d[5mC]*d[5mC]*dA*d[5mC]*d[5mC]*d[5mC]*kA*kT*k[5mC]; antisense) [compound 799588]", "% Inhibition": 44}, {"substance": "799590 (k[5mC]*kT*kG*d[5mC]*dA*dG*dT*d[5mC]*dT*dT*d[5mC]*dT*dG*kA*kA*kG; antisense) [compound 799590]", "% Inhibition": 9}, {"substance": "799591 (kA*kT*kT*dA*dG*dT*dA*dA*dA*dT*d[5mC]*dA*dA*kG*kA*kG; antisense) [compound 799591]", "% Inhibition": 56}, {"substance": "799592 (kG*kG*kA*dA*dT*dT*dA*dG*dT*dA*dA*dA*dT*k[5mC]*kA*kA; antisense) [compound 799592]", "% Inhibition": 47}, {"substance": "799603 (kG*k[5mC]*k[5mC]*d[5mC]*dA*dT*dT*dA*dT*dG*dA*dA*dT*kA*k[5mC]*kA; antisense) [compound 799603]", "% Inhibition": 52}, {"substance": "799604 (k[5mC]*kA*kT*d[5mC]*dA*d[5mC]*d[5mC]*dT*d[5mC]*d[5mC]*d[5mC]*d[5mC]*dT*k[5mC]*k[5mC]*kA; antisense) [compound 799604]", "% Inhibition": 0}, {"substance": "799606 (kT*kT*kT*dA*d[5mC]*dA*dA*dA*dA*d[5mC]*dT*d[5mC]*dT*k[5mC]*kT*kG; antisense) [compound 799606]", "% Inhibition": 50}, {"substance": "799609 (k[5mC]*k[5mC]*k[5mC]*d[5mC]*dA*dT*dG*dG*dA*dA*d[5mC]*dG*dA*kT*k[5mC]*kA; antisense) [compound 799609]", "% Inhibition": 41}, {"substance": "799610 (kG*kG*kG*dA*dG*dA*dA*dA*d[5mC]*dT*d[5mC]*d[5mC]*dT*k[5mC]*kA*kG; antisense) [compound 799610]", "% Inhibition": 45}, {"substance": "799611 (kT*kG*kT*dG*dA*dA*dA*dG*dA*dG*dG*d[5mC]*dT*k[5mC]*kA*kG; antisense) [compound 799611]", "% Inhibition": 37}, {"substance": "799612 (kA*kA*kA*d[5mC]*dA*dG*d[5mC]*dA*d[5mC]*dA*d[5mC]*dA*dG*kG*kG*k[5mC]; antisense) [compound 799612]", "% Inhibition": 50}]}, {"tested_on": "human SMAD7 mRNA", "experiment": "Antisense inhibition of human SMAD7 mRNA expression in Hep3B cells by 3-10-3 cEt gapmers, 10,000 nM, electroporation (Example 2)", "type": "cell-based", "conditions": "Hep3B cells, electroporation, 10,000 nM antisense oligonucleotide, approximately 24 hours, RTS5062, relative to untreated control cells", "in_short": "as §1", "units": {"% inhibition of SMAD7 mRNA expression": "%"}, "values": [{"substance": "799562 (kG*kA*kA*dG*dA*dG*dG*dA*dG*dA*dG*d[5mC]*d[5mC]*kG*kG*kG; antisense) [compound 799562]", "% inhibition of SMAD7 mRNA expression": 39}, {"substance": "799574 (k[5mC]*kA*kT*dT*d[5mC]*dA*dG*dG*dG*dT*dT*dT*dA*kA*kA*kA; antisense) [compound 799574]", "% inhibition of SMAD7 mRNA expression": 7}, {"substance": "799575 (k[5mC]*kA*k[5mC]*dA*dT*dT*d[5mC]*dA*dG*dG*dG*dT*dT*kT*kA*kA; antisense) [compound 799575]", "% inhibition of SMAD7 mRNA expression": 38}, {"substance": "799576 (kG*kA*kA*dA*dG*dG*dA*d[5mC]*d[5mC]*d[5mC]*dT*dT*dT*k[5mC]*kA*kA; antisense) [compound 799576]", "% inhibition of SMAD7 mRNA expression": 25}, {"substance": "799578 (kA*k[5mC]*k[5mC]*dT*dT*d[5mC]*d[5mC]*dG*dA*dA*dA*dG*dG*kA*k[5mC]*k[5mC]; antisense) [compound 799578]", "% inhibition of SMAD7 mRNA expression": 76}, {"substance": "799579 (kA*kA*k[5mC]*d[5mC]*dT*dT*d[5mC]*d[5mC]*dG*dA*dA*dA*dG*kG*kA*k[5mC]; antisense) [compound 799579]", "% inhibition of SMAD7 mRNA expression": 51}, {"substance": "799580 (kA*kA*kA*d[5mC]*d[5mC]*dT*dT*d[5mC]*d[5mC]*dG*dA*dA*dA*kG*kG*kA; antisense) [compound 799580]", "% inhibition of SMAD7 mRNA expression": 33}, {"substance": "799581 (k[5mC]*kA*kA*dA*d[5mC]*d[5mC]*dT*dT*d[5mC]*d[5mC]*dG*dA*dA*kA*kG*kG; antisense) [compound 799581]", "% inhibition of SMAD7 mRNA expression": 0}, {"substance": "799582 (kA*k[5mC]*kA*dA*dA*d[5mC]*d[5mC]*dT*dT*d[5mC]*d[5mC]*dG*dA*kA*kA*kG; antisense) [compound 799582]", "% inhibition of SMAD7 mRNA expression": 19}, {"substance": "799593 (kG*kA*kA*dG*dG*dA*dG*d[5mC]*dT*d[5mC]*dA*dA*dA*k[5mC]*kT*kT; antisense) [compound 799593]", "% inhibition of SMAD7 mRNA expression": 0}, {"substance": "799594 (kT*kG*kA*dA*d[5mC]*dG*dG*dA*dA*dA*dG*dA*dA*kG*kA*kA; antisense) [compound 799594]", "% inhibition of SMAD7 mRNA expression": 35}, {"substance": "799595 (k[5mC]*kT*k[5mC]*dT*dG*dA*dA*d[5mC]*dG*dG*dA*dA*dA*kG*kA*kA; antisense) [compound 799595]", "% inhibition of SMAD7 mRNA expression": 35}, {"substance": "799597 (kA*kA*k[5mC]*dT*d[5mC]*dT*dG*dA*dA*d[5mC]*dG*dG*dA*kA*kA*kG; antisense) [compound 799597]", "% inhibition of SMAD7 mRNA expression": 46}, {"substance": "799598 (k[5mC]*kA*kA*d[5mC]*dT*d[5mC]*dT*dG*dA*dA*d[5mC]*dG*dG*kA*kA*kA; antisense) [compound 799598]", "% inhibition of SMAD7 mRNA expression": 39}, {"substance": "799599 (k[5mC]*k[5mC]*kA*dA*d[5mC]*dT*d[5mC]*dT*dG*dA*dA*d[5mC]*dG*kG*kA*kA; antisense) [compound 799599]", "% inhibition of SMAD7 mRNA expression": 12}, {"substance": "799600 (kG*k[5mC]*kA*d[5mC]*d[5mC]*dA*dA*d[5mC]*dT*d[5mC]*dT*dG*dA*kA*k[5mC]*kG; antisense) [compound 799600]", "% inhibition of SMAD7 mRNA expression": 63}, {"substance": "799601 (kG*kA*kA*dT*dA*d[5mC]*dA*d[5mC]*dT*dG*d[5mC]*dA*d[5mC]*k[5mC]*kA*kA; antisense) [compound 799601]", "% inhibition of SMAD7 mRNA expression": 48}, {"substance": "799602 (k[5mC]*k[5mC]*kA*dT*dT*dA*dT*dG*dA*dA*dT*dA*d[5mC]*kA*k[5mC]*kT; antisense) [compound 799602]", "% inhibition of SMAD7 mRNA expression": 51}, {"substance": "799613 (kT*k[5mC]*kA*d[5mC]*dA*dT*dT*d[5mC]*dG*dG*d[5mC]*dT*dG*kT*kT*kT; antisense) [compound 799613]", "% inhibition of SMAD7 mRNA expression": 17}]}]}
